Measured values from PubChem BioAssay AID248 (DTP/NCI, 2004).
Values joined by “and” are separate entries in the source; they are usually repeats but may differ in a detail not shown here. Equal entries are not always repeated. Toxic doses and inconclusive results are not listed. Rule as the data show it: active = T/C of 150% or more; inactive = T/C below 125%.

Test system: L1210 leukemia ip in BDF1 mice, survival T/C
Test: NCI In Vivo Anticancer Drug Screen. Data for tumor model L1210 Leukemia (intraperitoneal) in B6D2F1 (BDF1) mice
Conditions: endpoint: mean survival time, higher = longer survival
How it was run: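 Value reflects the ratio of survival in compound-treated mice to survival in vehicle-treated controls, with both groups carrying the same transplanted tumor.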

[1] = dose: 100.0 mg/kg/injection, schedule: Q01DX009 (ip), vehicle: saline
[2] = dose: 200.0 mg/kg/injection, schedule: Q01DX009 (ip), vehicle: saline
[3] = dose: 100.0 mg/kg/injection, schedule: Q01DX009 (ip), vehicle: saline with Tween-80
[4] = dose: 100.0 mg/kg/injection, schedule: Q04DX003 (ip), vehicle: saline with Tween-80
[5] = dose: 200.0 mg/kg/injection, schedule: Q01DX009 (ip), vehicle: saline with Tween-80
[6] = dose: 200.0 mg/kg/injection, schedule: Q04DX003 (ip), vehicle: saline with Tween-80
[7] = dose: 400.0 mg/kg/injection, schedule: Q04DX003 (ip), vehicle: saline with Tween-80
[8] = dose: 50.0 mg/kg/injection, schedule: Q01DX001 (ip), vehicle: saline
[9] = dose: 100.0 mg/kg/injection, schedule: Q01DX009 (ip), vehicle: Klucel (hydroxypropylcellulose) (HPC)
[10] = dose: 100.0 mg/kg/injection, schedule: Q04DX003 (ip), vehicle: Klucel (hydroxypropylcellulose) (HPC)
[11] = dose: 200.0 mg/kg/injection, schedule: Q01DX009 (ip), vehicle: Klucel (hydroxypropylcellulose) (HPC)
[12] = dose: 200.0 mg/kg/injection, schedule: Q04DX003 (ip), vehicle: Klucel (hydroxypropylcellulose) (HPC)
[13] = dose: 400.0 mg/kg/injection, schedule: Q01DX009 (ip), vehicle: Klucel (hydroxypropylcellulose) (HPC)
[14] = dose: 400.0 mg/kg/injection, schedule: Q04DX003 (ip), vehicle: Klucel (hydroxypropylcellulose) (HPC)

Measured: T/C

C[C@@]1(O)CCCC[C@H]1O
inactive: [1] 95 % of control | dose: 100.0 mg/kg/injection, schedule: Q04DX003 (ip), vehicle: saline 106 % of control | [2] 105 % of control | dose: 200.0 mg/kg/injection, schedule: Q04DX003 (ip), vehicle: saline 103 % of control | dose: 400.0 mg/kg/injection, schedule: Q01DX009 (ip), vehicle: saline 96 % of control | dose: 400.0 mg/kg/injection, schedule: Q04DX003 (ip), vehicle: saline 92 % of control

OC1CC2CCC1C2 (stereo not given)
inactive: [3] 94 % of control | [4] 106 % of control | [5] 105 % of control | [6] 91 % of control | dose: 400.0 mg/kg/injection, schedule: Q01DX009 (ip), vehicle: saline with Tween-80 95 % of control | [7] 88 % of control

NC(N)=N/N=C/c1cc([N+](=O)[O-])ccc1O
inactive: dose: 15.0 mg/kg/injection, schedule: Q01DX Z (ip), vehicle: saline 120 % of control | dose: 30.0 mg/kg/injection, schedule: Q01DX Z (ip), vehicle: saline 98 % of control | dose: 60.0 mg/kg/injection, schedule: Q01DX Z (ip), vehicle: saline 98 % of control | dose: 60.0 mg/kg/injection, schedule: Q01DX Z (oral), vehicle: saline 100 % of control | dose: 120.0 mg/kg/injection, schedule: Q01DX Z (ip), vehicle: saline 96 % of control | dose: 120.0 mg/kg/injection, schedule: Q01DX Z (oral), vehicle: saline 96 % of control

C/C(CCl)=N\Nc1ccc([N+](=O)[O-])cc1[N+](=O)[O-]
inactive: dose: 100.0 mg/kg/injection, schedule: Q01DX001 (ip), vehicle: saline with Tween-80 101 % of control | dose: 200.0 mg/kg/injection, schedule: Q01DX001 (ip), vehicle: saline with Tween-80 98 % of control

CCOc1nc(N)nc(N)c1-c1ccc(Cl)cc1
inactive: dose: 100.0 mg/kg/injection, schedule: Q04DX002 (ip), vehicle: saline with Tween-80 92 % of control | dose: 200.0 mg/kg/injection, schedule: Q04DX002 (ip), vehicle: saline with Tween-80 96 % of control

O=C(CCCC(=O)N/N=C/c1ccccc1Cl)N/N=C\c1ccccc1Cl
inactive: [8] 103 % of control | dose: 100.0 mg/kg/injection, schedule: Q01DX001 (ip), vehicle: saline 100 % of control | dose: 200.0 mg/kg/injection, schedule: Q01DX001 (ip), vehicle: saline 110 % of control | dose: 400.0 mg/kg/injection, schedule: Q01DX001 (ip), vehicle: saline 110 % of control

Cn1c(CC(O)(C(F)(F)F)C(F)(F)F)cc2ccccc21
inactive: dose: 100.0 mg/kg/injection, schedule: Q01DX009 (ip), vehicle: other 95 % of control | dose: 200.0 mg/kg/injection, schedule: Q01DX009 (ip), vehicle: other 95 % of control | dose: 400.0 mg/kg/injection, schedule: Q01DX009 (ip), vehicle: other 93 % of control

Clc1ccc([O][Sn]([c]2ccccc2)([c]2ccccc2)[c]2ccccc2)c(-c2ccccc2)c1
inactive: dose: 5.0 mg/kg/injection, schedule: Q01DX001 (ip), vehicle: saline 90 % of control | dose: 10.0 mg/kg/injection, schedule: Q01DX001 (ip), vehicle: saline 96 % of control

O=C1Oc2ccccc2C1c1ccccc1 (stereo not given)
inactive: dose: 87.5 mg/kg/injection, schedule: Q01DX009 (ip), vehicle: other 103 % of control | dose: 175.0 mg/kg/injection, schedule: Q01DX009 (ip), vehicle: other 108 % of control | dose: 350.0 mg/kg/injection, schedule: Q01DX009 (ip), vehicle: other 106 % of control

CCOC(=O)C1(CCC#N)CC(C#N)(c2ccccc2)CCC1=O (stereo not given)
inactive: dose: 100.0 mg/kg/injection, schedule: Q04DX003 (ip), vehicle: acetone 98 % of control | dose: 200.0 mg/kg/injection, schedule: Q04DX003 (ip), vehicle: acetone 90 % of control | dose: 400.0 mg/kg/injection, schedule: Q04DX003 (ip), vehicle: acetone 93 % of control

O=C(Nc1ccc(Cl)c(Cl)c1)Oc1ccc(-c2ccccc2)cc1
inactive: [9] 93 % of control | [10] 87 % of control | [11] 100 % of control | [12] 92 % of control | [13] 90 % of control | [14] 88 % of control

CCCCCCCCCC(C)CCCCCC (stereo not given)
inactive: dose: 75.0 mg/kg/injection, schedule: Q01DX001 (ip), vehicle: saline with Tween-80 100 % of control | dose: 150.0 mg/kg/injection, schedule: Q01DX001 (ip), vehicle: saline with Tween-80 116 % of control | dose: 300.0 mg/kg/injection, schedule: Q01DX001 (ip), vehicle: saline with Tween-80 92 % of control

CN=NC(OC(C)=O)(c1ccccc1)c1ccccc1
inactive: dose: 100.0 mg/kg/injection, schedule: Q01DX001 (ip), vehicle: Klucel (hydroxypropylcellulose) (HPC) 101 % of control | [9] 100 % of control | [10] 108 % of control | dose: 200.0 mg/kg/injection, schedule: Q01DX001 (ip), vehicle: Klucel (hydroxypropylcellulose) (HPC) 95 % of control | [11] 97 % of control | [12] 103 % of control | dose: 400.0 mg/kg/injection, schedule: Q01DX001 (ip), vehicle: Klucel (hydroxypropylcellulose) (HPC) 94 % of control | [13] 105 % of control | [14] 101 % of control

[CH3][Sn]([CH3])([CH3])[CH2][Sn]([CH3])([CH3])[CH3]
inactive: dose: 50.0 mg/kg/injection, schedule: Q01DX009 (ip), vehicle: saline 101 % of control | [1] 93 % of control and 103 % of control | [2] 98 % of control

O=Cc1cc(Cl)cc(Cl)c1OC(=O)c1ccccc1
inactive: [9] 97 % of control | [11] 92 % of control

CCCC(C)OC(=O)Nc1cccc(OC(=O)NC)c1 (stereo not given)
inactive: [4] 102 % of control | [6] 98 % of control | [7] 101 % of control

C=C1C(=O)N(C)CCC1(O)C(CC)C(=O)OC (stereo not given)
inactive: dose: 6.25 mg/kg/injection, schedule: Q01DX001 (ip), vehicle: saline 98 % of control | dose: 12.5 mg/kg/injection, schedule: Q01DX001 (ip), vehicle: saline 98 % of control | dose: 25.0 mg/kg/injection, schedule: Q01DX001 (ip), vehicle: saline 98 % of control | [8] 98 % of control

C=CCc1cc(CN(CCO)Cc2cc(CC=C)cc(OC)c2O)c(O)c(OC)c1
inactive: dose: 12.5 mg/kg/injection, schedule: Q04DX003 (ip), vehicle: Klucel (hydroxypropylcellulose) (HPC) 95 % of control | dose: 25.0 mg/kg/injection, schedule: Q04DX003 (ip), vehicle: Klucel (hydroxypropylcellulose) (HPC) 101 % of control | dose: 50.0 mg/kg/injection, schedule: Q04DX003 (ip), vehicle: Klucel (hydroxypropylcellulose) (HPC) 95 % of control

O=C(O)C1(Cl)CC2C=CC1C2 (stereo not given)
inactive: dose: 50.0 mg/kg/injection, schedule: Q01DX009 (ip), vehicle: gum acacia 99 % of control | dose: 50.0 mg/kg/injection, schedule: Q01DX009 (ip), vehicle: saline with Tween-80 93 % of control | dose: 100.0 mg/kg/injection, schedule: Q01DX009 (ip), vehicle: gum acacia 89 % of control | [3] 96 % of control | dose: 100.0 mg/kg/injection, schedule: Q04DX003 (ip), vehicle: gum acacia 101 % of control | [4] 93 % of control | dose: 200.0 mg/kg/injection, schedule: Q01DX009 (ip), vehicle: gum acacia 92 % of control | [5] 94 % of control | dose: 200.0 mg/kg/injection, schedule: Q04DX003 (ip), vehicle: gum acacia 95 % of control | [6] 91 % of control
